Reference: ChEMBL document CHEMBL3352694, “Structure-activity relationships (SAR) and structure-kinetic relationships (SKR) of bicyclic heteroaromatic acetic acids as potent CRTh2 antagonists I” (Bioorg Med Chem Lett, 2014)

System: not listed separately
Assay: Oral bioavailability in rat at 10 mg/kg
Assay type: ADME, organism-based
Conditions: in vivo

bioavailability [%]	SMILES
46	CCN(Cc1cc(C(F)(F)F)ccc1-c1cn(CC(=O)O)c2ccccc12)C(=O)C1CC1

System: not listed separately
Assay: Clearance in rat at 1 mg/kg
Assay type: ADME, organism-based
Set-up: dose 1 mg/kg
Conditions: in vivo

clearance [mL/min/kg]	SMILES
6.9	CCN(Cc1cc(C(F)(F)F)ccc1-c1cc(CC(=O)O)ccc1OC)C(=O)C1CC1
38	CCN(Cc1cc(C(F)(F)F)ccc1-c1nn(CC(=O)O)c2ccccc12)C(=O)C1CC1
19	CCN(Cc1cc(C(F)(F)F)ccc1-n1cc(CC(=O)O)c2cccnc21)C(=O)C1CC1
30	CCN(Cc1cc(C(F)(F)F)ccc1-c1cn(CC(=O)O)c2ccccc12)C(=O)C1CC1

System: not listed separately
Assay: Drug metabolism in human liver microsomes at 5 uM in presence of NADPH after 30 mins at 37 degC
Assay type: ADME
Conditions: read-out: Drug metabolism

metabolised at 0.5 h, 5 µM [%]	SMILES
< 5	CCN(Cc1cc(C(F)(F)F)ccc1-c1cc(CC(=O)O)ccc1OC)C(=O)C1CC1
< 5	CCN(Cc1cc(C(F)(F)F)ccc1-c1nn(CC(=O)O)c2ccccc12)C(=O)C1CC1

System: not listed separately
Assay: AUC (0 to infinity) in rat at 1 mg/kg
Assay type: ADME, organism-based
Set-up: time infinity, dose 1 mg/kg
Conditions: plasma

AUC(0-inf) [ng·h/mL]	SMILES
2420	CCN(Cc1cc(C(F)(F)F)ccc1-c1cc(CC(=O)O)ccc1OC)C(=O)C1CC1
440	CCN(Cc1cc(C(F)(F)F)ccc1-c1nn(CC(=O)O)c2ccccc12)C(=O)C1CC1
885	CCN(Cc1cc(C(F)(F)F)ccc1-n1cc(CC(=O)O)c2cccnc21)C(=O)C1CC1
559	CCN(Cc1cc(C(F)(F)F)ccc1-c1cn(CC(=O)O)c2ccccc12)C(=O)C1CC1

System: not listed separately
Assay: Drug metabolism in rat liver microsomes assessed as phase-2 metabolism measured by glucuronidation level at 5 uM in presence of UDPGA after 2 hrs at 37 degC
Assay type: ADME
Conditions: read-out: Drug metabolism

metabolised at 2 h, 5 µM [%]	SMILES
21	CCN(Cc1cc(C(F)(F)F)ccc1-c1cc(CC(=O)O)ccc1OC)C(=O)C1CC1
12	CCN(Cc1cc(C(F)(F)F)ccc1-c1nn(CC(=O)O)c2ccccc12)C(=O)C1CC1
6	CCN(Cc1cc(C(F)(F)F)ccc1-n1cc(CC(=O)O)c2cccnc21)C(=O)C1CC1
32	CCN(Cc1cc(C(F)(F)F)ccc1-c1cn(CC(=O)O)c2ccccc12)C(=O)C1CC1

System: not listed separately
Assay: Dissociation constant, acidic pKa of the compound by potentiometric assay
Assay type: physicochemical
Conditions: not given

pKa	SMILES
2.8	CCN(Cc1cc(C(F)(F)F)ccc1-c1nn(CC(=O)O)c2ccccc12)C(=O)C1CC1
2.4	CCN(Cc1cc(C(F)(F)F)ccc1-n1cc(CC(=O)O)c2cccnc21)C(=O)C1CC1

System: not listed separately
Assay: Drug metabolism in human liver microsomes assessed as phase-2 metabolism measured by glucuronidation level at 5 uM in presence of UDPGA after 2 hrs at 37 degC
Assay type: ADME
Conditions: read-out: Drug metabolism

metabolised at 2 h, 5 µM [%]	SMILES
28	CCN(Cc1cc(C(F)(F)F)ccc1-c1cc(CC(=O)O)ccc1OC)C(=O)C1CC1
35	CCN(Cc1cc(C(F)(F)F)ccc1-c1nn(CC(=O)O)c2ccccc12)C(=O)C1CC1

System: not listed separately
Assay: Apparent permeability of the compound at 20 uM incubated at 20 degC for 5 hrs in 2% DMSO containing PBS buffer solution by PAMPA assay
Assay type: physicochemical
Conditions: not given

Papp at 5 h, 20 µM [×10⁻⁶ cm/s]	SMILES
1.5	CCN(Cc1cc(C(F)(F)F)ccc1-c1cc(CC(=O)O)ccc1OC)C(=O)C1CC1
0.18	CCN(Cc1cc(C(F)(F)F)ccc1-c1nn(CC(=O)O)c2ccccc12)C(=O)C1CC1
1.1	CCN(Cc1cc(C(F)(F)F)ccc1-n1cc(CC(=O)O)c2cccnc21)C(=O)C1CC1
0.6	CCN(Cc1cc(C(F)(F)F)ccc1-c1cn(CC(=O)O)c2ccccc12)C(=O)C1CC1

System: not listed separately
Assay: Thermodynamic solubility in pH 7.4 buffer after 24 hrs at 37 degC
Assay type: physicochemical
Conditions: read-out: Therm_solubility

solubility thermodynamic at 24 h [µg/mL]	SMILES
> 1000	CCN(Cc1cc(C(F)(F)F)ccc1-c1nn(CC(=O)O)c2ccccc12)C(=O)C1CC1
> 1000	CCN(Cc1cc(C(F)(F)F)ccc1-n1cc(CC(=O)O)c2cccnc21)C(=O)C1CC1
> 1000	CCN(Cc1cc(C(F)(F)F)ccc1-c1cn(CC(=O)O)c2ccccc12)C(=O)C1CC1

System: not listed separately
Assay: Cmax in rat at 1 mg/kg
Assay type: ADME, organism-based
Set-up: dose 1 mg/kg
Conditions: in vivo

Cmax [ng/mL]	SMILES
1530	CCN(Cc1cc(C(F)(F)F)ccc1-c1cc(CC(=O)O)ccc1OC)C(=O)C1CC1
550	CCN(Cc1cc(C(F)(F)F)ccc1-c1nn(CC(=O)O)c2ccccc12)C(=O)C1CC1
926	CCN(Cc1cc(C(F)(F)F)ccc1-n1cc(CC(=O)O)c2cccnc21)C(=O)C1CC1
571	CCN(Cc1cc(C(F)(F)F)ccc1-c1cn(CC(=O)O)c2ccccc12)C(=O)C1CC1

System: not listed separately
Assay: Drug metabolism in rat liver microsomes at 5 uM in presence of NADPH after 30 mins at 37 degC
Assay type: ADME
Conditions: read-out: Drug metabolism

metabolised at 0.5 h, 5 µM [%]	SMILES
< 5	CCN(Cc1cc(C(F)(F)F)ccc1-c1nn(CC(=O)O)c2ccccc12)C(=O)C1CC1
< 5	CCN(Cc1cc(C(F)(F)F)ccc1-c1cn(CC(=O)O)c2ccccc12)C(=O)C1CC1

System: not listed separately
Assay: Thermodynamic solubility in pH 1.0 buffer after 24 hrs at 37 degC
Assay type: physicochemical
Conditions: read-out: Therm_solubility

solubility thermodynamic at 24 h [µg/mL]	SMILES
< 1	CCN(Cc1cc(C(F)(F)F)ccc1-c1nn(CC(=O)O)c2ccccc12)C(=O)C1CC1
> 1000	CCN(Cc1cc(C(F)(F)F)ccc1-n1cc(CC(=O)O)c2cccnc21)C(=O)C1CC1
< 1	CCN(Cc1cc(C(F)(F)F)ccc1-c1cn(CC(=O)O)c2ccccc12)C(=O)C1CC1

System: not listed separately
Assay: Mean residence time in rat at 1 mg/kg
Assay type: ADME, organism-based
Set-up: dose 1 mg/kg
Conditions: in vivo

MRT [h]	SMILES
4.7	CCN(Cc1cc(C(F)(F)F)ccc1-c1cc(CC(=O)O)ccc1OC)C(=O)C1CC1
2.4	CCN(Cc1cc(C(F)(F)F)ccc1-c1nn(CC(=O)O)c2ccccc12)C(=O)C1CC1
3.4	CCN(Cc1cc(C(F)(F)F)ccc1-n1cc(CC(=O)O)c2cccnc21)C(=O)C1CC1
1.6	CCN(Cc1cc(C(F)(F)F)ccc1-c1cn(CC(=O)O)c2ccccc12)C(=O)C1CC1

System: not listed separately
Assay: Lipophilicity, log D of the compound at pH 7.4 by shake flask method
Assay type: physicochemical
Conditions: buffer

logD	SMILES
0.6	CCN(Cc1cc(C(F)(F)F)ccc1-c1cc(CC(=O)O)ccc1OC)C(=O)C1CC1
0.8	CCN(Cc1cc(C(F)(F)F)ccc1-c1nn(CC(=O)O)c2ccccc12)C(=O)C1CC1
0.5	CCN(Cc1cc(C(F)(F)F)ccc1-n1cc(CC(=O)O)c2cccnc21)C(=O)C1CC1
1.4	CCN(Cc1cc(C(F)(F)F)ccc1-c1cn(CC(=O)O)c2ccccc12)C(=O)C1CC1

Biological target: T1, Prostaglandin D2 receptor 2 (Homo sapiens) (UniProt Q9Y5Y4)
T1 sequence (whole entry): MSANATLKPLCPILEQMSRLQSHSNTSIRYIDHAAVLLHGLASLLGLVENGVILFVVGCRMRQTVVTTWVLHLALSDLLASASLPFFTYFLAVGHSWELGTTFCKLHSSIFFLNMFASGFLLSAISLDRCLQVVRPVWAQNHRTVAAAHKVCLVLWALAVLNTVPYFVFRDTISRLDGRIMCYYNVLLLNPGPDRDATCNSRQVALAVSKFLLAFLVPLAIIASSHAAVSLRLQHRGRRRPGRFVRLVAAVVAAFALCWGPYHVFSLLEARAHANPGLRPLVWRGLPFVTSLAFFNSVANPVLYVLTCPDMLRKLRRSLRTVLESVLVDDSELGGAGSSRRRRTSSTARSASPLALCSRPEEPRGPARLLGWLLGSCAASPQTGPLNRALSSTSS
Assay: not given
Conditions: CHO-K1

T1/2 [h]	SMILES
1.6	CCN(Cc1cc(C(F)(F)F)ccc1-c1nn(CC(=O)O)c2ccccc12)C(=O)C1CC1
4	CCN(Cc1cc(C(F)(F)F)ccc1-c1cn(CC(=O)O)c2ccccc12)C(=O)C1CC1

Biological target: not listed separately
Assay: Antagonist activity at CRTh2 receptor in human eosinophil assessed as inhibition of PGD2-induced cell shape change
Conditions: not given

IC50 [nM]	SMILES
47	CCN(Cc1cc(C(F)(F)F)ccc1-c1nn(CC(=O)O)c2ccccc12)C(=O)C1CC1

System: not listed separately
Assay: Volume of distribution at steady state in rat at 1 mg/kg
Assay type: ADME, organism-based
Set-up: dose 1 mg/kg
Conditions: in vivo, read-out: Vdss

Vd [L/kg]	SMILES
2	CCN(Cc1cc(C(F)(F)F)ccc1-c1cc(CC(=O)O)ccc1OC)C(=O)C1CC1
5.4	CCN(Cc1cc(C(F)(F)F)ccc1-c1nn(CC(=O)O)c2ccccc12)C(=O)C1CC1
3.9	CCN(Cc1cc(C(F)(F)F)ccc1-n1cc(CC(=O)O)c2cccnc21)C(=O)C1CC1
2.9	CCN(Cc1cc(C(F)(F)F)ccc1-c1cn(CC(=O)O)c2ccccc12)C(=O)C1CC1

System: not listed separately
Assay: Permeability of the compound assessed as mass balance at 20 uM incubated at 20 degC for 5 hrs in 2% DMSO containing PBS buffer solution by PAMPA assay
Assay type: ADME
Conditions: read-out: Activity

recovery at 5 h, 20 µM [%]	SMILES
91	CCN(Cc1cc(C(F)(F)F)ccc1-c1cc(CC(=O)O)ccc1OC)C(=O)C1CC1
81	CCN(Cc1cc(C(F)(F)F)ccc1-c1nn(CC(=O)O)c2ccccc12)C(=O)C1CC1
80	CCN(Cc1cc(C(F)(F)F)ccc1-n1cc(CC(=O)O)c2cccnc21)C(=O)C1CC1
71	CCN(Cc1cc(C(F)(F)F)ccc1-c1cn(CC(=O)O)c2ccccc12)C(=O)C1CC1

Biological target: T2, Prostaglandin D2 receptor 2 (Homo sapiens, UniProt Q9Y5Y4)
T2 sequence (Q9Y5Y4 whole entry): T1 sequence (whole entry)
Assay: Antagonist activity at CRTh2 receptor (unknown origin) overexpressed in CHOK1 cell membranes assessed as inhibition of [35S]-GTPgammaS binding at 1 to 5 uM preincubated for 1 hr followed by 50 nM PGD2 and 0.1 nM [35S]-GTPgammaS addition measured after 2 hrs by liquid scintillation counting analysis relative to control
Assay type: functional, CHO-K1
Conditions: not given

IC50 [nM]	SMILES
16	CCN(Cc1cc(C(F)(F)F)ccc1-c1cc(CC(=O)O)ccc1OC)C(=O)C1CC1

System: not listed separately
Assay: Dissociation constant, basic pKa of the compound by potentiometric assay
Assay type: physicochemical
Conditions: not given

pKa	SMILES
4.2	CCN(Cc1cc(C(F)(F)F)ccc1-n1cc(CC(=O)O)c2cccnc21)C(=O)C1CC1

System: not listed separately
Assay: Terminal half life in rat at 1 mg/kg
Assay type: ADME, organism-based
Set-up: dose 1 mg/kg
Conditions: in vivo, read-out: beta t1/2 (converted)

half-life [min]	SMILES
354	CCN(Cc1cc(C(F)(F)F)ccc1-c1cc(CC(=O)O)ccc1OC)C(=O)C1CC1
144	CCN(Cc1cc(C(F)(F)F)ccc1-c1nn(CC(=O)O)c2ccccc12)C(=O)C1CC1
318	CCN(Cc1cc(C(F)(F)F)ccc1-n1cc(CC(=O)O)c2cccnc21)C(=O)C1CC1
90	CCN(Cc1cc(C(F)(F)F)ccc1-c1cn(CC(=O)O)c2ccccc12)C(=O)C1CC1
